Data as given in patent US6660774B2, “Use of (+)-tramadol, O-demethyltramadol or (+)-O-demethyl-tramadol, O-desmethyl-N-mono-desmethyl-tramadol or (+)- O-desmethyl-N-mono-desmethyltramadol” (Gruenethal GmbH, priority 1999, dated 2003).

Tested on: virgin, female Sprague-Dawley rats (bladder function)
Test: Cystometric testing on conscious, virgin rats
Assay type: in vivo, rat
[1] = 5.0 mg/kg i.v., Diff.: change relative to the initial value
[2] = 5.0 mg/kg i.v., h: after administration, at maximum action
[3] = 5.0 mg/kg i.v., v: before administration (initial value)
[4] = 0.1 mg/kg i.v., Diff.: change relative to the initial value
[5] = 0.1 mg/kg i.v., h: after administration, at maximum action
[6] = 0.1 mg/kg i.v., v: before administration (initial value)
[7] = 0.3 mg/kg i.v., Diff.: change relative to the initial value
[8] = 0.3 mg/kg i.v., h: after administration, at maximum action
[9] = 0.3 mg/kg i.v., v: before administration (initial value)
[10] = 0.5 mg/kg i.v., Diff.: change relative to the initial value
[11] = 0.5 mg/kg i.v., h: after administration, at maximum action
[12] = 0.5 mg/kg i.v., v: before administration (initial value)
[13] = 1.0 mg/kg i.v., Diff.: change relative to the initial value
[14] = 1.0 mg/kg i.v., h: after administration, at maximum action
[15] = 1.0 mg/kg i.v., v: before administration (initial value)
[16] = 10.0 mg/kg i.v., Diff.: change relative to the initial value
[17] = 10.0 mg/kg i.v., h: after administration, at maximum action
[18] = 10.0 mg/kg i.v., v: before administration (initial value)

COc1cccc(C2(O)CCCCC2CN(C)C)c1 (single isomer, unassigned; (-)) [(−)-Tramadol, (−)-tramadol, reference compound]
Basal pressure [1]: Diff.: +2%
Bladder capacity [1]: Diff.: −8%
Micturition pressure [1]: Diff.: −15%
Micturition volume [1]: Diff.: −6%
Residual volume [1]: Diff.: −17%
Threshold pressure [1]: Diff.: −3%
Basal pressure [2]: h: 4.20 ± 0.30 cm H2O
Bladder capacity [2]: h: 1.10 ± 0.09 ml
Micturition pressure [2]: h: 59 ± 3 cm H2O
Micturition volume [2]: h: 1.01 ± 0.09 ml
Residual volume [2]: h: 0.10 ± 0.02 ml
Threshold pressure [2]: h: 7.10 ± 0.44 cm H2O
Basal pressure [3]: v: 4.12 ± 0.40 cm H2O
Bladder capacity [3]: v: 1.19 ± 0.13 ml
Micturition pressure [3]: v: 69 ± 4 cm H2O
Micturition volume [3]: v: 1.07 ± 0.13 ml
Residual volume [3]: v: 0.12 ± 0.01 ml
Threshold pressure [3]: v: 7.32 ± 2.21 cm H2O

COc1cccc([C@@]2(O)CCCC[C@@H]2CN(C)C)c1 [(+)-Tramadol, (+)-tramadol]
Basal pressure [4]: Diff.: −4%
Bladder capacity [4]: Diff.: +18%
Inter-contraction interval [4]: Diff.: +33%
Micturition pressure [4]: Diff.: −20%
Micturition volume [4]: Diff.: +7%
Residual volume [4]: Diff.: 44%
Threshold pressure [4]: Diff.: +48%
Basal pressure [5]: h: 3.85 ± 0.46 cm H2O
Bladder capacity [5]: h: 1.07 ± 0.13 ml
Inter-contraction interval [5]: h: 7.13 ± 0.85 min
Micturition pressure [5]: h: 55 ± 8 cm H2O
Micturition volume [5]: h: 0.80 ± 0.09 ml
Residual volume [5]: h: 0.23 ± 0.07 ml
Threshold pressure [5]: h: 11.63 ± 1.05 cm H2O
Basal pressure [6]: v: 4.01 ± 0.57 cm H2O
Bladder capacity [6]: v: 0.91 ± 0.11 ml
Inter-contraction interval [6]: v: 5.35 ± 0.63 min
Micturition pressure [6]: v: 69 ± 11 cm H2O
Micturition volume [6]: v: 0.75 ± 0.12 ml
Residual volume [6]: v: 0.16 ± 0.01 ml
Threshold pressure [6]: v: 7.87 ± 1.51 cm H2O
Basal pressure [7]: Diff.: +10%
Bladder capacity [7]: Diff.: +39%
Inter-contraction interval [7]: Diff.: +19%
Micturition pressure [7]: Diff.: −15%
Micturition volume [7]: Diff.: +13%
Residual volume [7]: Diff.: +167%
Threshold pressure [7]: Diff.: +95%
Basal pressure [8]: h: 4.95 ± 0.19 cm H2O
Bladder capacity [8]: h: 1.38 ± 0.14 ml
Inter-contraction interval [8]: h: 7.21 ± 0.72 min
Micturition pressure [8]: h: 60 ± 5 cm H2O
Micturition volume [8]: h: 0.97 ± 0.13 ml
Residual volume [8]: h: 0.40 ± 0.04 ml
Threshold pressure [8]: h: 16.01 ± 1.63 cm H2O
Basal pressure [9]: v: 4.50 ± 0.29 cm H2O
Bladder capacity [9]: v: 0.99 ± 0.08 ml
Inter-contraction interval [9]: v: 6.06 ± 0.49 min
Micturition pressure [9]: v: 71 ± 4 cm H2O
Micturition volume [9]: v: 0.86 ± 0.07 ml
Residual volume [9]: v: 0.15 ± 0.01 ml
Threshold pressure [9]: v: 8.21 ± 0.42 cm H2O
Basal pressure [10]: Diff.: +13%
Bladder capacity [10]: Diff.: +18%
Inter-contraction interval [10]: Diff.: +21%
Micturition pressure [10]: Diff.: −22%
Micturition volume [10]: Diff.: +22%
Residual volume [10]: Diff.: −14%
Threshold pressure [10]: Diff.: +91%
Basal pressure [11]: h: 4.70 ± 1.14 cm H2O
Bladder capacity [11]: h: 1.43 ± 0.11 ml
Micturition pressure [11]: h: 57 ± 10 cm H2O
Micturition volume [11]: h: 1.31 ± 0.12 ml
Residual volume [11]: h: 0.12 ± 0.002 ml
Threshold pressure [11]: h: 15.0 ± 2.58 cm H2O
Basal pressure [12]: v: 4.16 ± 0.62 cm H2O
Bladder capacity [12]: v: 1.21 ± 0.06 ml
Micturition pressure [12]: v: 73 ± 12 cm H2O
Micturition volume [12]: v: 1.07 ± 0.06 ml
Residual volume [12]: v: 0.14 ± 0.03 ml
Threshold pressure [12]: v: 7.85 ± 1.04 cm H2O
effect on bladder parameters (in words) (5 mg/kg i.v.): has an effect
Basal pressure [1]: Diff.: +53%
Bladder capacity [1]: Diff.: −2%
Inter-contraction interval [1]: Diff.: +7%
Micturition pressure [1]: Diff.: −15%
Micturition volume [1]: Diff.: +46%
Residual volume [1]: Diff.: −95%
Threshold pressure [1]: Diff.: +140%
Basal pressure [2]: h: 6.46 ± 1.13 cm H2O
Bladder capacity [2]: h: 0.90 ± 0.09 ml
Micturition pressure [2]: h: 51 ± 7 cm H2O
Micturition volume [2]: h: 1.18 ± 0.12 ml
Residual volume [2]: h: 0.006 ± 0.003 ml
Threshold pressure [2]: h: 19.20 ± 3.02 cm H2O
Basal pressure [3]: v: 4.23 ± 0.35 cm H2O
Bladder capacity [3]: v: 0.92 ± 0.08 ml
Micturition pressure [3]: v: 60 ± 4 cm H2O
Micturition volume [3]: v: 0.81 ± 0.07 ml
Residual volume [3]: v: 0.11 ± 0.02 ml
Threshold pressure [3]: v: 8.0 ± 1.10 cm H2O
bladder capacity (in words) (rat, in vivo): distinct increase

CN(C)CC1CCCCC1(O)c1cccc(O)c1 (stereo not shown) [O-demethyltramadol]
effect on bladder function (in words) (even at low concentrations): clear effect

COc1cccc([C@@]2(O)CCCC[C@@H]2CN(C)C)c1 (racemic) [Tramadol, (1RS,2RS)-2-dimethylaminomethyl-1-(3-methoxyphenyl)cyclohexanol]
Basal pressure [13]: Diff.: +26%
Bladder capacity [13]: Diff.: −2%
Micturition pressure [13]: Diff.: −10%
Micturition volume [13]: Diff.: +27%
Residual volume [13]: Diff.: −89%
Threshold pressure [13]: Diff.: +50%
Basal pressure [14]: h: 11.34 ± 1.54 cm H2O
Bladder capacity [14]: h: 0.82 ± 0.09 ml
Micturition pressure [14]: h: 85 ± 6 cm H2O
Micturition volume [14]: h: 0.95 ± 0.08 ml
Residual volume [14]: h: 0.01 ± 0.005 ml
Threshold pressure [14]: h: 21.03 ± 3.10 cm H2O
Basal pressure [15]: v: 9.02 ± 1.12 cm H2O
Bladder capacity [15]: v: 0.84 ± 0.11 ml
Micturition pressure [15]: v: 94 ± 7 cm H2O
Micturition volume [15]: v: 0.75 ± 0.09 ml
Residual volume [15]: v: 0.09 ± 0.02 ml
Threshold pressure [15]: v: 14.0 ± 2.04 cm H2O
action on threshold pressure compared with 10 mg/kg of racemic tramadol (5 mg/kg): doubled
Basal pressure [1]: Diff.: +1%
Bladder capacity [1]: Diff.: +6%
Inter-contraction interval [1]: Diff.: −11%
Micturition pressure [1]: Diff.: −27%
Micturition volume [1]: Diff.: +42%
Residual volume [1]: Diff.: −73%
Threshold pressure [1]: Diff.: +37%
Basal pressure [2]: h: 9.30 ± 2.10 cm H2O
Bladder capacity [2]: h: 0.92 ± 0.08 ml
Micturition pressure [2]: h: 75 ± 10 cm H2O
Micturition volume [2]: h: 1.08 ± 0.09 ml
Residual volume [2]: h: 0.03 ± 0.01 ml
Threshold pressure [2]: h: 17.05 ± 2.33 cm H2O
Basal pressure [3]: v: 9.21 ± 1.35 cm H2O
Bladder capacity [3]: v: 0.87 ± 0.07 ml
Micturition pressure [3]: v: 103 ± 10 cm H2O
Micturition volume [3]: v: 0.76 ± 0.06 ml
Residual volume [3]: v: 0.11 ± 0.02 ml
Threshold pressure [3]: v: 12.45 ± 1.411 cm H2O
threshold pressure (in words) (10 mg/kg i.v.): distinct rise
Basal pressure [16]: Diff.: +40%
Bladder capacity [16]: Diff.: −18%
Inter-contraction interval [16]: Diff.: −40%
Micturition pressure [16]: Diff.: −11%
Micturition volume [16]: Diff.: +33%
Residual volume [16]: Diff.: −50%
Threshold pressure [16]: Diff.: +70%
Basal pressure [17]: h: 14.31 ± 1.89 cm H2O
Bladder capacity [17]: h: 0.78 ± 0.08 ml
Micturition pressure [17]: h: 66 ± 5 cm H2O
Micturition volume [17]: h: 1.13 ± 0.08 ml
Residual volume [17]: h: 0.05 ± 0.005 ml
Threshold pressure [17]: h: 25.50 ± 2.40 cm H2O
Basal pressure [18]: v: 10.21 ± 1.03 cm H2O
Bladder capacity [18]: v: 0.95 ± 0.06 ml
Micturition pressure [18]: v: 74 ± 5 cm H2O
Micturition volume [18]: v: 0.85 ± 0.05 ml
Residual volume [18]: v: 0.10 ± 0.02 ml
Threshold pressure [18]: v: 15.01 ± 1.32 cm H2O
ICI (in words) (most effective dose (10 mg/kg)): distinct reduction
